Laboratory results reported in BindingDB's records for doi:10.1021/jm981033g (University of Antwerp (Uia), 1999).

Experiments:
[1] = Effect on the activity of prolyl endopeptidase (PEP) was evaluated at the IC50 concentration for DPP IV and
[2] = Effect on the activity of prolyl endopeptidase (PEP) was evaluated at 1 mM concentration for DPP IV

Compound: CC(=O)Nc1cccc(OP(=O)(Oc2cccc(NC(C)=O)c2)C2CCCN2C(=O)C2CCCN2)c1 (configuration not stated) [2-{2-[Bis-(3-acetylamino-phenoxy)-phosphoryl]-pyrrolidine-1-carbonyl}-pyrrolidinium; chloride]
- IC50 [1]: 89 µM
- IC50 [2]: 50 µM
